Experiments:
[1] = biological target: T1, Avi-KRAS G12D (1-169) GppNHp/RAF1 RBD-3xFLAG (52-151) (Homo sapiens, UniProt P01116, G12D); experiment: Raf1-KRAS G12D-GppNHP disruption HTRF assay (Biological Example 1); format: binding
T1 construct: Avi-KRAS G12D (1-169)
Summary of the method: (§1)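 Percent activity versus DMSO (100%) was derived from HTRF signal after KRAS–RAF1 RBD protein mix was incubated 1 h at room temperature with shaking and detection reagents were added for a further 1 h.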

[2] = biological target: T2, Avi-KRAS G12R (1-169) GppNHp/RAF1 RBD-3xFLAG (52-151) (Homo sapiens, UniProt P01116, G12R); experiment: Raf1-KRAS G12R-GppNHP disruption HTRF assay (Biological Example 1); format: binding
T2 construct: Avi-KRAS G12R (1-169)
Summary of the method: as §1

[3] = biological target: T3, Avi-KRAS G12V (1-169) GppNHp/RAF1 RBD-3xFLAG (52-151) (Homo sapiens, UniProt P01116, G12V); experiment: Raf1-KRAS G12V-GppNHP disruption HTRF assay (Biological Example 1); format: binding
T3 construct: Avi-KRAS G12V (1-169)
Summary of the method: as §1

[4] = biological target: T4, Avi-KRAS WT (1-169) GppNHp/RAF1 RBD-3xFLAG (52-151) (Homo sapiens, UniProt P01116); experiment: Raf1-KRAS WT-GppNHP disruption HTRF assay (Biological Example 1); format: binding
T4 construct: Avi-KRAS WT (1-169)
Summary of the method: as §1

[5] = system: GP2d cells (KRAS G12D); experiment: Cell-based pERK HTRF assay in GP2d cell (Biological Example 2); settings: GP2d, GP2d (KRAS G12D) cells, pERK HTRF
Summary of the method: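 Phospho-ERK is measured by HTRF following a 60 min compound exposure at 0.25% DMSO, with a 9-point half-log curve topping at 1 μM or 100 nM.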

[6] = system: SW620 cells (KRAS G12V); experiment: Cell-based pERK HTRF assay in SW620 cell (Biological Example 4); settings: Homo sapiens, SW-620, SW620 (KRAS G12V) cells, pERK HTRF
Summary of the method: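 Read-out: HTRF pERK signal (excitation 320 nm, emission 615 nm) from lysates of SW620 cells after 4 h compound exposure. Dose range was 9 points, half-log steps from 1 μM, in 0.25% DMSO; antibody incubation ran 4–24 h at room temperature.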

[7] = KRAS G12D, GppNHp-loaded, class symbols
[8] = KRAS G12R, GppNHp-loaded, class symbols
[9] = KRAS G12V, GppNHp-loaded, class symbols
[10] = KRAS WT, GppNHp-loaded, class symbols

T1 sequence (P01116 1-169 isoform P01116-2 G12D): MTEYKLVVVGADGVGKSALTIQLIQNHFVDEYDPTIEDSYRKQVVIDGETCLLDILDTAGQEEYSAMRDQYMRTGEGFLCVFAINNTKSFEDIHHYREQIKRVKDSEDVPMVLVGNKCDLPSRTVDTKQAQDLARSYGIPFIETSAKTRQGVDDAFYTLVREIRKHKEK
T3 sequence (P01116 1-169 isoform P01116-2 G12V): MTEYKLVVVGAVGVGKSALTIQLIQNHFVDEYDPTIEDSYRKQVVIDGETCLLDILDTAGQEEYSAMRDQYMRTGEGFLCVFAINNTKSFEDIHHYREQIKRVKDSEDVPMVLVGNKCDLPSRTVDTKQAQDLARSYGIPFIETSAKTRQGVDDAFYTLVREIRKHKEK
T4 sequence (P01116 1-169 isoform P01116-2): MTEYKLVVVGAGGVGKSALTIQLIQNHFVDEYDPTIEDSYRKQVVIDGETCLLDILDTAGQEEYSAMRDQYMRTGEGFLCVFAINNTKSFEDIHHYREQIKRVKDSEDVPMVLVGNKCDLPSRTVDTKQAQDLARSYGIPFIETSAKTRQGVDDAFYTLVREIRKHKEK
T2 sequence (P01116 1-169 isoform P01116-2 G12R): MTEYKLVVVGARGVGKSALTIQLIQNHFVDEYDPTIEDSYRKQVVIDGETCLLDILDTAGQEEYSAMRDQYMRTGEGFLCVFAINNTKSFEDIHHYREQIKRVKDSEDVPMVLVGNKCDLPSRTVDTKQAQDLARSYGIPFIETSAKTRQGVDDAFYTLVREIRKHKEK

IC50 [1, 7] [nM] | IC50 [2, 8] [nM] | IC50 [3, 9] [nM] | IC50 [4, 10] [nM] | IC50 ([5]; class symbols) [nM] | IC50 ([6]; class symbols) [nM] | IC50 ([1]; KRAS G12D-GppNHp/RAF1 RBD HTRF) [nM] | IC50 ([2]; KRAS G12R-GppNHp/RAF1 RBD HTRF) [nM] | IC50 ([3]; KRAS G12V-GppNHp/RAF1 RBD HTRF) [nM] | IC50 ([4]; KRAS WT-GppNHp/RAF1 RBD HTRF) [nM] | IC50 [5] [nM] | IC50 [6] [nM] | IC50 ([1]; KRAS G12D, GppNHp-loaded, Table 11) [nM] | IC50 ([2]; KRAS G12R, GppNHp-loaded, Table 11) [nM] | IC50 ([3]; KRAS G12V, GppNHp-loaded, Table 11) [nM] | IC50 ([4]; KRAS WT, GppNHp-loaded, Table 11) [nM] | Compound
< 100 | < 100 | < 100 | < 100 | < 100 | < 100 |  |  |  |  |  |  |  |  |  |  | CCN(c1nc(OC[C@@]23CCCN2C[C@H](F)C3)nc2c(F)c(-c3ccc(F)c4sc(N)c(C#N)c34)c(C(F)(F)F)cc12)[C@H]1CCN(C(=O)c2ccn(C)n2)C1 (atropisomer, axis not shown) [Compound 724]
 |  |  |  |  |  | < 100 | 100 to 1000 | 100 to 1000 | < 100 | < 100 | < 100 |  |  |  |  | N#Cc1c(N)sc2c(F)ccc(-c3c(C(F)(F)F)cc4c(N5CCO[C@@H](CO)C5)nc(OC[C@@]56CCCN5C[C@H](F)C6)nc4c3F)c12 [Compound 282]
100 to 1000 | 100 to 1000 | 100 to 1000 | 100 to 1000 | < 100 | < 100 |  |  |  |  |  |  |  |  |  |  | C/C=C\C(=O)N1CC[C@@H](N(C)c2nc(OC[C@@]34CCCN3C[C@H](F)C4)nc3c(F)c(-c4ccc(F)c5sc(N)c(C#N)c45)c(C(F)(F)F)cc23)[C@H]1C [Compound 672]
 |  |  |  |  |  | < 100 | < 100 | < 100 | < 100 | < 100 | < 100 |  |  |  |  | CCN(c1nc(OC[C@@]23CCCN2C[C@H](F)C3)nc2c(F)c(-c3ccc(F)c4sc(N)c(C#N)c34)c(C(F)(F)F)cc12)[C@H]1CCN(C(=O)N2CCCC2)C1 [Compound 542]
 |  |  |  |  |  | 1000 to 10000 | 1000 to 10000 | > 10000 | 1000 to 10000 | 100 to 1000 | < 100 |  |  |  |  | N#Cc1c(N)sc2c(F)ccc(-c3c(C(F)(F)F)cc4c(N5CCc6cn[nH]c6C5)nc(OC[C@@]56CCCN5C[C@H](F)C6)nc4c3F)c12 [Compound 354]
 |  |  |  |  |  | < 100 | 100 to 1000 | 100 to 1000 | 100 to 1000 | < 100 | < 100 |  |  |  |  | CC[C@@H](C)C(=O)N1CC[C@H](N(CC)c2nc(OC[C@@]34CCCN3C[C@H](F)C4)nc3c(F)c(-c4ccc(F)c5sc(N)c(C#N)c45)c(C(F)(F)F)cc23)C1 (atropisomer, axis not shown) [Compound 563]
 |  |  |  |  |  |  |  |  |  | < 100 | 100 to 1000 | 100 to 1000 | 100 to 1000 | 100 to 1000 | 100 to 1000 | CC(=O)N1CC[C@@H](N(C)c2nc(OC[C@@]34CCCN3C[C@H](F)C4)nc3c(F)c(-c4ccc(F)c5sc(N)c(C#N)c45)c(C(F)(F)F)cc23)[C@@H]1C [Compound 190, 4-(4-(((2S,3R)-1-acetyl-2-methylpyrrolidin-3-yl)(methyl)amino)-8-fluoro-2-(((2R,7aS)-2-fluorotetrahydro-1H-pyrrolizin-7a(5H)-yl)methoxy)-6-(trifluoromethyl)quinazolin-7-yl)-2-amino-7-fluorobenzo[b]thiophene-3-carbonitrile]
 |  |  |  |  |  | 100 to 1000 | 100 to 1000 | 100 to 1000 | 100 to 1000 | < 100 | < 100 |  |  |  |  | CC(=O)N1CCC[C@@H](N(C)c2nc(OC[C@@]34CCCN3C[C@H](F)C4)nc3c(F)c(-c4ccc(F)c5sc(N)c(C#N)c45)c(C(F)(F)F)cc23)C1 [Compound 295]
 |  |  |  |  |  | 1000 to 10000 | 1000 to 10000 | 1000 to 10000 | 1000 to 10000 | < 100 | 100 to 1000 |  |  |  |  | CCN(c1nc(OC[C@@]23CCCN2C[C@H](F)C3)nc2c(F)c(-c3ccc(F)c4sc(N)c(C#N)c34)c(C(F)(F)F)cc12)[C@H]1CC(=O)N(C(C)C)C1 [Compound 528]

Compound | IC50 [1, 7] [nM] | IC50 [2, 8] [nM] | IC50 [3, 9] [nM] | IC50 [4, 10] [nM] | IC50 ([5]; class symbols) [nM] | IC50 ([6]; class symbols) [nM] | IC50 ([1]; KRAS G12D-GppNHp/RAF1 RBD HTRF) [nM] | IC50 ([2]; KRAS G12R-GppNHp/RAF1 RBD HTRF) [nM] | IC50 ([3]; KRAS G12V-GppNHp/RAF1 RBD HTRF) [nM] | IC50 ([4]; KRAS WT-GppNHp/RAF1 RBD HTRF) [nM] | IC50 [5] [nM] | IC50 [6] [nM] | IC50 ([1]; KRAS G12D, GppNHp-loaded, Table 11) [nM] | IC50 ([2]; KRAS G12R, GppNHp-loaded, Table 11) [nM] | IC50 ([3]; KRAS G12V, GppNHp-loaded, Table 11) [nM] | IC50 ([4]; KRAS WT, GppNHp-loaded, Table 11) [nM]
N#Cc1c(N)sc2c(F)ccc(-c3c(C(F)(F)F)cc4c(N5CC6CCC(C5)N6C(=O)C5CC5)nc(OC[C@@]56CCCN5C[C@H](F)C6)nc4c3F)c12 [Compound 439] |  |  |  |  |  |  | 100 to 1000 | 1000 to 10000 | 1000 to 10000 | 1000 to 10000 | < 100 | < 100 |  |  |  | 
